Like-named read-outs stand apart in the source and are kept apart here.
What was measured:
[1] = test system: Huh-7 cells; assay: Release of active metabolite in Huh-7 cells; assay type: in vitro ADME, human; conditions: Table 6, AUC0-72
Description: Assay for the Release of Active Metabolite in Huh-7 Cells. Huh-7 cells were plated in 1 mL culture medium (DMEM, containing glucose, L-glutamine and sodium pyruvate, 10% FBS, 100 IU/mL penicillin, 100 μg/mL streptomycin, 2 mM GlutaMAX, 1% MEM non-essential amino acids) at the concentration 0.8, 0.4 and 0.2 million cells per well on 6 well plates for 24, 48 and 72 hr treatment, respectively. Plated cells were incubated overnight at 37° C. in an incubator.
The following morning test compound was diluted to 20 μM from a stock solution in DMSO in fresh culture medium pre-warmed to 37° C. and 1 mL of the solution/well was added to cells. A final medium volume per well was 2.0 mL, test compound concentration in well was 10 μM and final DMSO concentration was 0.1%.
After 24, 48 or 72 hr, the medium was carefully removed and cell monolayers were washed twice with 2 mL ice-cold PBS per well. Following the last wash, all PBS was carefully removed and 1.0 mL of extraction solution (ice-cold 70% methanol) added. The plate was tightly covered with Parafilm, plastic plate cover and Parafilm again and an intracellular content was extracted at −20° C. for 24 hr.
After 24 hr extracts were transferred into polypropylene microfuge tubes and dry on a refrigerated centrivap concentrator. Dry residues were reconstituted in 250 μL of HPLC-grade water and centrifuged at 16,000×g for 10 min. Aliquots (100 μL each) of the supernatants were transferred into a 96 well plate and internal standard (4 ng/mL final concentration) was added as the internal standard (IS) for LC-MS/MS analysis.

[2] = test system: HCV genotype 1b replicon; assay: HCV Replicon Assay; assay type: cell-based; conditions: genotype 1b HCV replicon-bearing Huh-7 cells, read-out: EC50
Description: Huh-7-derived cell line (Zluc) that harbors an HCV genotype 1b replicon and a luciferase reporter gene was grown in Dulbecco's Modified Eagle Medium (DMEM) supplemented with 10% fetal bovine serum, 2 mM GlutaMAX, 1% MEM nonessential amino acids, 100 IU/mL penicillin, 100 μg/mL streptomycin, and 0.5 mg/mL Geneticin® (G418). For dose response testing the cells were seeded in 96-well plates at 7.5×10^3 cells per well in a volume of 50 μL, and incubated at 37° C./5% CO2. Drug solutions were made up freshly in Huh-7 media as 2× stocks. Ten additional 5-fold dilutions were prepared from these stocks in DMEM without G418. At least three hours after Zluc cells were seeded, drug treatment was initiated by adding 50 μL of drug dilutions to the plates in duplicate. Final concentrations of drug ranged from 100 μM to […]. Cells were then incubated at 37° C./5% CO2. Alternatively, compounds were tested at two concentrations (1 μM and 10 μM). […] For this, media was removed from the plates via gentle tapping. Fifty microliters of ONE-glo luciferase assay reagent was added to each well. The plates were shaken gently for 3 min at room temperature and luminescence was measured on a Victor^3 V 1420 multilabel counter (Perkin Elmer) with a 1 second read time using a 700 nm cut-off filter. The EC50 values were calculated from dose response curves from the resulting best-fit equations determined by Microsoft Excel and XLfit 4.1 software. When screening at two fixed concentrations, the results were expressed as % inhibition at 1 μM and 10 μM.

[3] = target: T1, cathepsin A (CatA) (Homo sapiens, UniProt P10619); assay: CatA hydrolysis assay; assay type: in vitro ADME; conditions: for CatA hydrolysis @ 18 h: 100 μM compound, 37° C.
T1 sequence (P10619 29-326 limits assumed): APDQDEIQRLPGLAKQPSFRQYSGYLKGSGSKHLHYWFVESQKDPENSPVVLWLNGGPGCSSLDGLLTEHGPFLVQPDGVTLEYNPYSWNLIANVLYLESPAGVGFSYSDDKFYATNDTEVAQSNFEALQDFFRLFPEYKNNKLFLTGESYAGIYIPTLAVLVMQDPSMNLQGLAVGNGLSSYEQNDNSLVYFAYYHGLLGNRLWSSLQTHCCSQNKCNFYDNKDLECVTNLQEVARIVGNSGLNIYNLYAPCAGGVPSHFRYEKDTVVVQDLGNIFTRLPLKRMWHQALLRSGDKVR
T1 sequence (P10619 327-480 limits assumed): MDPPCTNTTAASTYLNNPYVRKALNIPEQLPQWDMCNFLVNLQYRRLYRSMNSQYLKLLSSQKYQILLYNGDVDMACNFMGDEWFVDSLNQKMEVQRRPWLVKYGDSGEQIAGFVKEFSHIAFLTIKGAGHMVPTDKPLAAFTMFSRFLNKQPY
Description: CatA, cathepsin L (CatL) and CES1 were purchased from R & D Systems (Minneapolis, Minn.). Prior to the enzymatic hydrolysis reactions, CatA was activated according to the manufacturer's instruction. Briefly, CatA (0.05 μg/μL) was incubated with CatL (0.005 μg/μL) for 30 min at 37° C. in 25 mM MES pH 6.0 containing 5 mM DTT. The reaction was stopped by addition of the CatL specific inhibitor E64 (10 μM).
The CatA assay was performed at 37° C. The reaction mixture contained 25 mM MES buffer pH 6.0, 100 mM NaCl, 4 mM DTT and 100 μM of the compound. The reaction was started by addition of the activated CatA enzyme to a final concentration of 0.005 μg/μL. One hundred-μL aliquots were taken after 0.5 min, 3 hrs and 18 hrs of incubation. Reactions were stopped by mixing the sample with an equal volume of ice-cold methanol, and were loaded on a HPLC for analysis.
(§1) Samples were analyzed by HPLC using 5 μC-18, 4.6×250 mm Phenomenex® Columbus column (Phenomenex USA, CA). The mobile phase consisted of buffer A (25 mM potassium phosphate with 5 mM tetrabutylammonium dihydrogen phosphate pH 6.3) and buffer B (100% methanol).

[4] = target: T2, carboxylesterase 1 (CES1) (Homo sapiens, UniProt P23141); assay: CES1 hydrolysis assay; conditions: 100 μM compound, 37° C.
T2 sequence (P23141 18-567): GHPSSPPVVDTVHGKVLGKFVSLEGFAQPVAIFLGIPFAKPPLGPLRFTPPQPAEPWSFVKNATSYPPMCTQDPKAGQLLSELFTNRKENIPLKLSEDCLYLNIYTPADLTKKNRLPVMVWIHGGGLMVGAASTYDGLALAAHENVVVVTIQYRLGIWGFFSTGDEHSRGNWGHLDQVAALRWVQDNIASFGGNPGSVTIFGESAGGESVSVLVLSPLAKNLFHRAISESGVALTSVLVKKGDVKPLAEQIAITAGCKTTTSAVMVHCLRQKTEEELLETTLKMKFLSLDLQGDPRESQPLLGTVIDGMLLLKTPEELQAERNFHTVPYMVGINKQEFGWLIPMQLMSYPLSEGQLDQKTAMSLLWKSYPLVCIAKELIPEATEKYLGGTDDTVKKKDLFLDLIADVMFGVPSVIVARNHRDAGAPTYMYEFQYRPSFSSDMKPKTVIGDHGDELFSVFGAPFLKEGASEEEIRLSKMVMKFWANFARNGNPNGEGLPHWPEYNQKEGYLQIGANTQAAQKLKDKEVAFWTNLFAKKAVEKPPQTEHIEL
Description: (§2) CES1 assay was performed at 37° C. in the reaction mixture containing 50 mM Tris/HCl buffer pH 7.5 and 100 μM of the compound. Reaction was started by addition of the CES1 to the final concentration 0.01 μg/mL. 100 μL aliquots were taken after 0.5 min, 3 hrs and 21 hrs of the incubation and the reaction was stopped by mixing with 100 μl of the ice-cold methanol prior to HPLC analysis.
as §1

[5] = Liver TP (Table 6); assay type: in vivo; conditions: liver triphosphate, species and dose not stated
[6] = target: T2, carboxylesterase 1 (CES1)
Description: as §2, §1

In the case of `CC(C)OC(=O)[C@H](C)N[P@](=O)(OC[C@H]1O[C@@H](n2ccc(=O)[nH]c2=O)[C@](C)(F)[C@@H]1O)Oc1ccccc1` (single isomer, unassigned) [GS-7977], the “Huh-7 pmol*hr/10^6 cells AUC0-72” value [1] is reported as 63555 pmol*hr/10^6 cells, the EC50 ([2]; Hepatitis C virus, Huh-7, Table 6) is reported as 0.25 µM and the “CatA hydrolysis @ 18 h” value [3] is reported as 100% @. For the same compound, the “CatA cleavage efficiency versus RP diastereoisomer” value ([3]; GS-7977 (SP) relative to PSI-7976 (RP)) was 10 times, the “CES1 hydrolysis 3 h” value ([4]; 3 h) was 12%/3 h; and the “CES1 hydrolysis 21 h” value ([4]; 21 h) was 15%/21 h.
With `CC(C)OC(=O)[C@H](C)N[P@@](=O)(OC[C@H]1O[C@@H](n2ccc(=O)[nH]c2=O)[C@](C)(F)[C@@H]1O)Oc1ccccc1` [PSI-7976] the “Huh-7 pmol*hr/10^6 cells AUC0-72” value [1] was 6527 pmol*hr/10^6 cells, the “Liver TP” value [5] was 310 pmol·h/g and the EC50 ([2]; Table 6) was 2.08 µM. For the same compound, the “CatA hydrolysis @ 18 h” value [3] was 10% @ and the “Hydrolysis by CES1 (in words)” value [6] was “preferentially hydrolyzed”.

From patent US9109001B2, “3′,5′-cyclic phosphoramidate prodrugs for HCV infection” (priority 2012, dated 2015)
